Measurements taken from patent US20070185172A1, “Organic compounds” (priority 2004, published 2007).

Key:
[1] = molecular target: T1, Recombinant human GR (Homo sapiens, UniProt P04150); test: Glucocorticoid receptor binding, fluorescence polarisation with Fluormone-GS1; details: Fluormone-GS1 ligand, 1 hr at room temperature, Ki calculated from IC50 using the Cheng-Prussoff equation
T1 construct: purchased Panvera (Madison, Wis., USA); host or cells: baculovirus-infected insect Sf-9 cells
T1 sequence (P04150 1-777): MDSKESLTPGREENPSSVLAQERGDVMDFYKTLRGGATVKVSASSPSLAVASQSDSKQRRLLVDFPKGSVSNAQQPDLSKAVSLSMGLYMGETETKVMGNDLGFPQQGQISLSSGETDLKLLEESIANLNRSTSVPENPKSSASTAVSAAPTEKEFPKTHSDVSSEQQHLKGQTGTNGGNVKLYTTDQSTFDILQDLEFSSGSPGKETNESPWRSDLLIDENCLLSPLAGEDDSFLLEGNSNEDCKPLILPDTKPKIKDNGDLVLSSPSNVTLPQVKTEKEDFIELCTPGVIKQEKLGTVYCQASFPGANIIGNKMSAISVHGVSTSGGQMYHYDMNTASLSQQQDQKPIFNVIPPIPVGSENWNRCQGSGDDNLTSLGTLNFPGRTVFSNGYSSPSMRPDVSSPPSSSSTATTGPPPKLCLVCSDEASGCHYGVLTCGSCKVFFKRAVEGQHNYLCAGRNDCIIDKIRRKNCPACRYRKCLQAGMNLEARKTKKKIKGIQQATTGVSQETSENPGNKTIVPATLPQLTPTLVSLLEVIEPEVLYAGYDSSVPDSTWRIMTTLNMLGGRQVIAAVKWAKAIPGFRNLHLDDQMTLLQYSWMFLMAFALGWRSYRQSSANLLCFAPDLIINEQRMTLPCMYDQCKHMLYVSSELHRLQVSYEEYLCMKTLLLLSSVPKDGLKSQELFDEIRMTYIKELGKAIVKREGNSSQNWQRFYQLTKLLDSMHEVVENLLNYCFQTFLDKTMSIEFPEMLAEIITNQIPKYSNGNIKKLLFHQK
Protocol: Binding to the glucocorticoid receptor may be measured in the following assay:
Recombinant human GR expressed in baculovirus-infected insect Sf-9 cells is obtained from Panvera (Madison, Wis., USA), as is GR assay buffer and the proprietary fluorescent ligand Fluormone™-GS1 (200 nM methanol solution). The assay is conducted in 384 well plates by sequential addition of a serially diluted dimethylsulfoxide solution of test compound in water (2 μl), Fluormone™-GS1 (2.2 nM in GR assay buffer, 10 μl) and GR solution (8.8 nM in GR assay buffer, 10 μl). The assay is incubated in the dark at room temperature for 1 hr, prior to fluorescence polarisation measurement using an analyst multiwell instrument with 485 nm excitation and 530 nm emission filters. The concentration of test compound resulting in half-maximum shift in polarisation gives the IC50. Curves are fitted using Origin™ software and Ki values were calculated using the Cheng-Prussoff equation. Compounds of Examples 1, 2, 3, and 4 have Ki values of 0.5, 1.4, 0.4 and 0.2 nM respectively in this assay.

[2] = test system: TNF-alpha synthesis and release in human macrophage cell line U937; test: Inhibition of TNF-alpha synthesis and release in LPS-stimulated differentiated U937 cells; assay type: cell-based; details: U-937, PMA-differentiated U937 cells, 10 ng/ml LPS, 24 hours, TNFα by sandwich ELISA
Protocol: Inhibition of TNF-alpha synthesis and release may be measured by the following assay:
Human macrophage cell line U937 is obtained from American Type Culture Collection (Rockville Md.) and cultured in RPMI 1640 (Gibco UK) supplemented with 10% FCS (Gibco UK). Cell density is adjusted to 4×10^5 cells/ml and the cells are differentiated by adding phorbal myristate acetate (PMA, 20 ng/ml) for 4 hours. The PMA is removed by washing and the adherent cells are incubated for a further 48 hours at 37° C. in a humidified incubator with 5% CO2. Differentiated U937 cells are removed using cell dissociation buffer (Gibco UK) and the cell density is adjusted to 1×10^6 cells/ml. 100 μl of the cell suspension is placed in 96 well culture plates and 50 μl of either medium or compound at the appropriate concentration in dimethylsulfoxide are added. After a preincubation of 20 minutes at 37° C., the cells are stimulated with 10 ng/ml lipopolysaccharide (LPS, Sigma) and the supernatants are harvested after 24 hours of incubation at 37° C. in a humidified incubator with 5% CO2. Concentration of TNFα in the supernatants is determined by sandwich ELISA using two monoclonal antibodies recognising different epitopes of the cytokine (Pharmingen UK). Binding of the second antibody is analysed by stepwise incubation with streptavidin alkaline phosphatase conjugate (Sigma UK) and 4-nitrophenylphosphate disodium salt. Optical density is measured at 405 nm and cytokine concentration calculated based on results from serial diluations of standard recombinant TNFα. Curves are fitted and IC50 values calculated using Origin™ software.

SMILES	Ki [1]	IC50 [2]
CCCN1C[C@@H]2CC3C4CCC5=CC(=O)C=C[C@]5(C)C4[C@@H](O)C[C@]3(C)[C@]2(C(=O)CO)O1 (stereo partly drawn) [Example 1, (4aR,5S,6aS,6bR,9aS)-5-Hydroxy-6b-(2-hydroxy-acetyl)-4a,6a-dimethyl-8-propyl-4a,4b,5,6,6a,6b,8,9,9a,10,10a,10b,11,12-tetradecahydro-7-oxa-8-pentaleno[2,1-a]phenanthren-2-one]	0.5 nM	1.16 nM
CN1C[C@@H]2CC3C4CCC5=CC(=O)C=C[C@]5(C)C4[C@@H](O)C[C@]3(C)[C@]2(C(=O)CO)O1 (stereo partly drawn) [Example 2, (4aR,5S,6aS,6bR,9aS)-5-Hydroxy-6b-(2-hydroxy-acetyl)-4a,6a,8-trimethyl-4a,4b,5,6,6a,6b, 8,9,9a,10a,10b,11,12-tetradecahydro-7-oxa-8-aza-pentaleno[2,1-a]phenanthren-2-one]	1.4 nM	4.95 nM
CCCCN1C[C@@H]2CC3C4CCC5=CC(=O)C=C[C@]5(C)C4[C@@H](O)C[C@]3(C)[C@]2(C(=O)CO)O1 (stereo partly drawn) [Example 3, (4aR,5S,6aS,6bR,9aS)-8-Butyl-5-hydroxy-6b-(2-hydroxy-acetyl)-4a,6a-dimethyl-4a,4b,5,6,6a,6b,8,9,9a,10,10a,10b,11,12-tetradecahydro-7-oxa-8-aza-pentaleno[2,1-a]phenanthren-2-one]	0.4 nM	0.89 nM
C[C@]12C=CC(=O)C=C1CCC1C2[C@@H](O)C[C@@]2(C)C1C[C@H]1CN(C3CCCCC3)O[C@]12C(=O)CO (stereo partly drawn) [Example 4, (4aR,5S,6aS,6bR,9aS)-8-Cyclohexyl-5-hydroxy-6b-(2-hydroxy-acetyl)-4a,6a-dimethyl-4a,4b, 5,6,6a,6b,8,9,9a,10,10a,10b,11,12-tetradecahydro-7-oxa-8-aza-pentaleno[2,1-a]-phenan-thren-2-one]	0.2 nM	3.57 nM
